# Assay: NaBH4 treatment: headspace composition of acrylic latex AC261
# Settings: 1 week, 500 ppm NaBH4 (with 60 ppm CALBL where combined)
# Description: Headspace VOC content in aqueous compositions was determined by a method based on ASTM 3960: Standard Practice for Determining Volatile Organic Compound (VOC) Content of Paints and Related Coatings. This method uses static headspace sampling/GC-MS at 33° C. to determine the headspace concentrations of compounds above aqueous emulsion polymers or waterborne paints.
# Weigh 5 g of each sample into 22 ml headspace vials with aluminum caps and crimp the cap tightly. Repeat the procedure with water blanks to be run, at a minimum, at the beginning and end of a sequence of samples. Analyze the samples via headspace GC-MS. Integrate all peaks in the resulting chromatogram that have a signal greater than five times the root-mean-square baseline noise. Once a satisfactory separation of the volatiles is achieved, mass spectral analysis and/or retention time matching against known compounds is used to identify the compounds detected. Determine the concentration of each calibrated compound in the sample headspace using the linear-least-squares equation from the calibration plot for that compound. Levels of the component in the headspace are reliable to 0.1 ppm by the GC-MS technique.
structure (smiles),measurement,value
"[BH4-].[Na+] [NaBH4, sodium borohydride]","Level of 2-butenoic acid, butyl ester in headspace",65 ppm
same,Level of 2-methyl-3-hexanone in headspace,0 ppm
same,Level of Acetone in headspace,0 ppm
same,Level of Butanal in headspace,0 ppm
same,Level of Isobutyraldehyde in headspace,0 ppm
same,Level of benzaldehyde in headspace,0 ppm
same,Level of butyl acetate in headspace,104 ppm
same,Level of butyl acrylate in headspace,67 ppm
same,Level of butyl propionate in headspace,207 ppm
same,Level of methyl isobutyrate in headspace,17 ppm
